Test results: patent publication US20240425478A1, “CYCLOPENTYLPYRAZOLE CDK2 INHIBITORS” (Genentech, Inc., priority 2021, published 2024)
Like-named read-outs stand apart in the source and are kept apart here.

How the values were obtained:
SKOV-3 (ATCC HTB-77) = assay: SKOV-3 EdU incorporation cell proliferation assay (CDK4/6-dependent); assay type: cell-based; details: for IC50: Homo sapiens, cellular assay, read-out: CDK4/6 SKOV-3 IC50
Protocol: (§1) (i) OVISE and SKOV-3 EdU Incorporation Cell Proliferation Assays
(§2) Ovarian cancer cell proliferation is measured by incorporation of EdU (5-ethynyl-2′-deoxyuridine) into newly synthesized DNA. CDK2-dependent proliferation is determined using OVISE (JCRB1043, CCNE1-amplified) while CDK4/6-dependent effect is determined with SKOV-3 (ATCC HTB-77) which is not CCNE1-amplified.
(§3) Cells are plated in 384-well plates in RPMI medium supplemented with 10% FBS. Compounds are added at desired concentrations with a final DMSO content of 0.5%, and cells incubated at 37° C./5% CO2 for 16 hours. EdU (Life Technologies) is added to a final concentration of 0.5 μM and incubation continued for 8 hours, followed by fixation with 4% paraformaldehyde. […] Images are acquired using Yokogawa CQ1 imaging cytometer with a 10×objective. […] The IC50 for inhibition of cell division is determined by fitting the fraction of EdU-positive cells as a function of compound dose using a 4-parameter logistic model.

[1] = biological target: T1, Cyclin Dependent Kinase 4/Cyclin D3 (CDK4-cycD3) (Homo sapiens, UniProt P11802); assay: CDK4-cycD3 TR-FRET (LANCE) enzyme assay; assay type: biochemical; details: for Ki: enzymatic assay
T1 construct: purchased Carna Biosciences 04-105
Protocol: (§4) Cyclin Dependent Kinase 1/Cyclin A2 (CDK1-cycA2), Cyclin Dependent Kinase 2/Cyclin E1 (CDK2-cycE1), Cyclin Dependent Kinase 4/Cyclin D3 (CDK4-cycD3) and Cyclin Dependent Kinase 6/Cyclin D3 (CDK6-cycD3) enzyme assays were carried out as described below.
(iii) CDK4-cycD3 TR-FRET (LANCE®)
(§5) An Echo acoustic dispenser is used to create dose responses of compound dissolved in DMSO into a 384-well microplate. A 5 μL volume of enzyme mix is added to the well, and pre-incubated with compound for 30 minutes. […] Buffer conditions are 50 mM HEPES, pH 7.5, 10 mM MgCl2, 2 mM TCEP, 0.05% BGG and 0.01% Brij 35. The reaction is quenched with 5 μL of EDTA in detection buffer (15 mM [EDTA final]). Finally, a 5 μL TR-FRET detection mix is added to the quenched reaction, which includes Europium labeled anti-phospho-4E-BP1. […] Signal is a ratio of the Acceptor and Donor fluorescence. Inhibition constants are calculated via the Morrison equation.

[2] = biological target: T2, Cyclin Dependent Kinase 1/Cyclin A2 (CDK1-cycA2) (Homo sapiens, UniProt P06493); assay: CDK1-cycA2 TR-FRET (Lance) enzyme assay; assay type: biochemical; details: for Ki: enzymatic assay
T2 construct: purchased ProQinase 0134-0054-1
Protocol: as §4
(1) CDK1-cycA2 TR-FRET (Lance®)
as §5

[3] = system: OVISE (JCRB1043, CCNE1-amplified); assay: OVISE EdU incorporation cell proliferation assay (CDK2-dependent); assay type: cell-based; details: for IC50: cellular assay, read-out: CDK2 OVISE IC50; for FS SKOV-3/OVISE: fold selectivity; for increased fold-selectivity SKOV-3/OVISE over Comparator C: (+) sign after FS SKOV-3/OVISE; for improvement in CDK2 OVISE cell potency over Comparator C: in brackets after OVISE IC50, Comparator C 5.5 μM
Protocol: as §1, §2, §3

[4] = biological target: T3, Cyclin Dependent Kinase 2/Cyclin E1 (CDK2-cycE1) (Homo sapiens, UniProt P24941); assay: CDK2-cycE1 TR-FRET (LANCE) enzyme assay; assay type: biochemical; details: for FS CDK1/CDK2 / FS CDK4/CDK2: fold selectivity; for increased fold-selectivity CDK4/CDK2 over Comparator C: (+) sign after FS CDK4/CDK2;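 for improvement in potency against CDK2 (Ki) over Comparator C: fold lower CDK2 Ki than comparator c (Ki 0.032 µM)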
T3 construct: purchased ProQinase 0050-0055-1
Protocol: as §4
(ii) CDK2-cycE1 TR-FRET (LANCE®)
as §5, with “anti-phospho-MBP.” for “anti-phospho-4E-BP1.”, “equation. Enzyme source of CDK2-cycE1 is ProQinase, catalog #: 0050-0055-1.” for “equation.”

[5] = Table O, cellular SKOV-3 IC50 over OVISE IC50
[6] = Table O, enzymatic assay, read-out: CDK2 Ki
[7] = Table O, enzymatic CDK1 Ki over CDK2 Ki
[8] = Table O, enzymatic CDK4 Ki over CDK2 Ki
[9] = Table Q, enzymatic assay, read-out: CDK2 Ki
[10] = Table R, fold selectivity, enzymatic Ki ratio

T1 sequence (P11802 whole entry): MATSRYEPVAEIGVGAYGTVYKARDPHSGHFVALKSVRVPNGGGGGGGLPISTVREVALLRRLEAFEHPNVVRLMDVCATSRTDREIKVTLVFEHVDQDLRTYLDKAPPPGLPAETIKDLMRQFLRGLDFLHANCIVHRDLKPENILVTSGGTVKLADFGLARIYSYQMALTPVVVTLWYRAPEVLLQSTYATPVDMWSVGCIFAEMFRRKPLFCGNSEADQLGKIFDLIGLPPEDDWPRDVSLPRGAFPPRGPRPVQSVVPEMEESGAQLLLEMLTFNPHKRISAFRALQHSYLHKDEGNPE
T1 sequence (P30281 whole entry partner): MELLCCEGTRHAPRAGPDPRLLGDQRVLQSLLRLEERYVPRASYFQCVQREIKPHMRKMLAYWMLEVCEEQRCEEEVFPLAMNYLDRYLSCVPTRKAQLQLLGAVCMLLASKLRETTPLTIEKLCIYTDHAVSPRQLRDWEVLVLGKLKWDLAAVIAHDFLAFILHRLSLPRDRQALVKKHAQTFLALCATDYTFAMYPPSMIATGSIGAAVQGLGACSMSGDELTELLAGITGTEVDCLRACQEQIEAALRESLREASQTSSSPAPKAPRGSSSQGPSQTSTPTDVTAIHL
T2 sequence (P06493 whole entry): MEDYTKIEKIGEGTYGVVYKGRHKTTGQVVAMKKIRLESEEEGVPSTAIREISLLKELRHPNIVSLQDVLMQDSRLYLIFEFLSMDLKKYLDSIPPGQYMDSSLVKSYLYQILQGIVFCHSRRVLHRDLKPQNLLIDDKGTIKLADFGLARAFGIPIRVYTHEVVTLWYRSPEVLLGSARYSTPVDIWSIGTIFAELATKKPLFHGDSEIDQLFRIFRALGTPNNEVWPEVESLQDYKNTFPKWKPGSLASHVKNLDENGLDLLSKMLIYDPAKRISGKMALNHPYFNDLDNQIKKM
T2 sequence (P20248 whole entry partner): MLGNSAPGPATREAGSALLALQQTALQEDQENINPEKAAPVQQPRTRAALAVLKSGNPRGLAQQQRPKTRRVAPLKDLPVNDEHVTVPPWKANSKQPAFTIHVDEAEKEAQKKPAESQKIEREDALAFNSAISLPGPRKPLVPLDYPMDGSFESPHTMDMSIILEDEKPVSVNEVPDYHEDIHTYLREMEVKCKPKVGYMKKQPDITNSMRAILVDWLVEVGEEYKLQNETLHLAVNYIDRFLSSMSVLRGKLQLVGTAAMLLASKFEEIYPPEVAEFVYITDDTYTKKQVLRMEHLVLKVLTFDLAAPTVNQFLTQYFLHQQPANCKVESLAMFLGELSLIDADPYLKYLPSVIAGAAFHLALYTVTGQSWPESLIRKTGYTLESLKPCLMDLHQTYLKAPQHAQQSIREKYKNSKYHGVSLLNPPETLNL

| SMILES | IC50 (SKOV-3 (ATCC HTB-77); SK-OV-3, Table O) | Ki ([1]; Table O) | Ki ([2]; Table O) | IC50 ([3]; Table O) | FS SKOV-3/OVISE [3, 5] | Ki [4, 6] | FS CDK1/CDK2 [4, 7] | FS CDK4/CDK2 [4, 8] | other results |
| --- | --- | --- | --- | --- | --- | --- | --- | --- | --- |
| Cc1ncc(Nc2cc([C@H]3CC[C@@H](OC(=O)NC(C)C)C3)[nH]n2)c(C)n1 [Example 2W, (1R,3S)-3-(3-((2,4-dimethylpyrimidin-5-yl)amino)-1H-pyrazol-5-y1)cyclopentyl isopropylcarbamate] | > 20000 nM | 3100 nM | 1100 nM | 2700 nM | >7.4 | 42 nM | 26 | 74 | IC50 (SKOV-3 (ATCC HTB-77); SK-OV-3, Table Q): > 20000 nM; increased fold-selectivity SKOV-3/OVISE over Comparator C ([3]; Table Q): (+) (The (+) sign in Table Q signifies desirable increased fold-selectivity of the exemplary compounds over Comparator C); FS SKOV-3/OVISE ([3]; Table Q, cellular): > 7.4; improvement in CDK2 OVISE cell potency over Comparator C ([3]; Table Q): 2 fold; improvement in potency against CDK2 (Ki) over Comparator C [4]: 0.8 fold; increased fold-selectivity CDK4/CDK2 over Comparator C ([4]; Table Q): (+) (The (+) sign in Table Q signifies desirable increased fold-selectivity of the exemplary compounds over Comparator C); Ki [4, 9]: 42 nM; FS CDK1/CDK2 ([4]; Table Q, enzymatic): 26; FS CDK4/CDK2 ([4]; Table Q, enzymatic): 74 |
| Cc1ncccc1Nc1cc([C@H]2CC[C@@H](OC(=O)N[C@H]3CCN(C)C3)C2)[nH]n1 [Example 7C, (1R,3S)-3-(3-((2-methylpyridin-3-yl)amino)-1H-pyrazol-5-yl)cyclopentyl ((S)-1-methylpyrrolidin-3-yl)carbamate] | > 20000 nM | 4200 nM | 3500 nM | 8000 nM | >2.5 | 260 nM | 13 | 16 | – |
| CC(C)(C)NC(=O)O[C@@H]1CC[C@H](c2cc(Nc3ccc4c(n3)CCC4)n[nH]2)C1 [Comparator D, (1R,3S)-3-(3-((6,7-dihydro-5H-cyclopenta[b]pyridin-2-yl)amino)-1H-pyrazol-5-yl)cyclopentyl tert-butylcarbamate, reference compound] | – | – | – | – | – | – | – | – | IC50 (SKOV-3 (ATCC HTB-77); SK-OV-3, Table R): 1800 nM; FS SKOV-3/OVISE (SKOV-3 (ATCC HTB-77); Table R, fold selectivity, cellular IC50 ratio): 0.47; Ki ([1]; Table R): 5.2 nM; FS CDK4/CDK2 [1, 10]: 1.9; Ki ([2]; Table R): 54 nM; FS CDK1/CDK2 [2, 10]: 20; IC50 ([3]; Table R): 3800 nM; Ki ([4]; read-out: CDK2 activity / potency (enzymatic assay)): 2.7 nM |
| Cc1ncccc1Nc1cc([C@H]2CC[C@@H](OC(=O)N[C@@H]3CCN(C)C3)C2)[nH]n1 [Example 7B, (1R,3S)-3-(3-((2-methylpyridin-3-yl)amino)-1H-pyrazol-5-yl)cyclopentyl ((R)-1-methylpyrrolidin-3-yl)carbamate] | > 20000 nM | 6500 nM | 3300 nM | 17000 nM | >1.2 | 300 nM | 11 | 22 | – |
| Cc1cnccc1Nc1cc([C@H]2CC[C@@H](OC(=O)NC34CC(C3)C4)C2)[nH]n1 [Example 9G, (1R,3S)-3-(3-((3-methylpyridin-4-yl)amino)-1H-pyrazol-5-yl)cyclopentyl bicyclo[1.1.1]pentan-1-ylcarbamate] | 15000 nM | 1300 nM | 770 nM | 340 nM | 44 | 12 nM | 64 | 110 | – |
| CC(C)NC(=O)O[C@@H]1CC[C@H](c2cc(Nc3ncnc(N(C)C)n3)n[nH]2)C1 [Example 2Q, (1R,3S)-3-(3-((4-(dimethylamino)-1,3,5-triazin-2-yl)amino)-1H-pyrazol-5-yl)cyclopentyl isopropylcarbamate] | > 20000 nM | 1500 nM | 670 nM | 2400 nM | >8.3 | 41 nM | 16 | 37 | IC50 (SKOV-3 (ATCC HTB-77); SK-OV-3, Table Q): > 20000 nM; increased fold-selectivity SKOV-3/OVISE over Comparator C ([3]; Table Q): (+) (The (+) sign in Table Q signifies desirable increased fold-selectivity of the exemplary compounds over Comparator C); FS SKOV-3/OVISE ([3]; Table Q, cellular): > 8.3; improvement in CDK2 OVISE cell potency over Comparator C ([3]; Table Q): 2.3 fold; increased fold-selectivity CDK4/CDK2 over Comparator C ([4]; Table Q): (+) (The (+) sign in Table Q signifies desirable increased fold-selectivity of the exemplary compounds over Comparator C); Ki [4, 9]: 41 nM; FS CDK1/CDK2 ([4]; Table Q, enzymatic): 16; FS CDK4/CDK2 ([4]; Table Q, enzymatic): 37; improvement in potency against CDK2 (Ki) over Comparator C ([4]; Table Q, in brackets after CDK2 Ki, Comparator C 0.032 μM): 0.8 fold |
| Cc1cc(Nc2cc([C@H]3CC[C@@H](OC(=O)NC45CC(C4)C5)C3)[nH]n2)c(C)nn1 [Example 9D, (1R,3S)-3-(3-((3,6-dimethylpyridazin-4-yl)amino)-1H-pyrazol-5-yl)cyclopentyl bicyclo[1.1.1]pentan-1-ylcarbamate] | > 20000 nM | 6000 nM | 340 nM | 5000 nM | >4 | 12 nM | 28 | 500 | – |
| COc1cc(=O)n(C)cc1Nc1cc([C@H]2CC[C@@H](OC(=O)NC34CC(C3)C4)C2)[nH]n1 [Example 10, (1R,3S)-3-(3-((4-methoxy-1-methyl-6-oxo-1,6-dihydropyridin-3-yl)amino)-1H-pyrazol-5-yl)cyclopentyl bicyclo[1.1.1]pentan-1-ylcarbamate] | > 20000 nM | > 50000 nM | 5100 nM | 16000 nM | >1.3 | 130 nM | 39 | 385 | – |
| CC[C@@H](C)NC(=O)O[C@@H]1CC[C@H](c2cc(Nc3cccnn3)n[nH]2)C1 (single isomer, unassigned) [Example 3C] | 12000 nM | 430 nM | 500 nM | 390 nM | 31 | 18 nM | 28 | 24 | – |
| CC1(NC(=O)O[C@@H]2CC[C@H](c3cc(Nc4cccnn4)n[nH]3)C2)COC1 [Example 3G, (1R,3S)-3-(3-(pyridazin-3-ylamino)-1H-pyrazol-5-yl)cyclopentyl (3-methyloxetan-3-yl)carbamate] | > 20000 nM | 730 nM | 240 nM | 750 nM | >27 | 8.3 nM | 29 | 88 | – |
| CNC(=O)c1ccc(Nc2cc([C@H]3CC[C@@H](OC(=O)NC4(C)CC4)C3)[nH]n2)c(C)n1 [Example 7A, (1R,3S)-3-(3-((2-methyl-6-(methylcarbamoyl)pyridin-3-yl)amino)-1H-pyrazol-5-yl)cyclopentyl (1-methylcyclopropyl)carbamate] | > 20000 nM | 590 nM | 550 nM | 1400 nM | >14 | 14 nM | 39 | 42 | – |
| CC(C)NC(=O)O[C@@H]1CC[C@H](c2cc(Nc3ccc(-n4ccnc4)nc3)n[nH]2)C1 [Example 2J, (1R,3S)-3-(3-((6-(1H-imidazol-1-yl)pyridin-3-yl)amino)-1H-pyrazol-5-yl)cyclopentyl isopropylcarbamate] | 11000 nM | 230 nM | 200 nM | 440 nM | 25 | 10 nM | 20 | 23 | – |
